Target: T1, human PDE4B1 (Homo sapiens, UniProt Q07343)
T1 construct: host or cells: Sf9 cells
Experiment: cAMP HTRF assay to determine the activity of hPDE4B1
Type: biochemical
Conditions: for inhibition at 1 µM: 1 μM test concentration, human recombinant PDE4B1, cAMP 40 nM, read-out: Inhibition at 1 μM test concentration [%] (Percentage inhibition of PDE4B); for IC50: measured according to the cAMP HTRF hPDE4B1 assay, read-out: PDE4B IC50
Description: cAMP HTRF® Assay to Determine the Activity of hPDE4B1
The inhibiting effect of the compounds on the enzyme activity of human PDE4B1 was measured by the quantification of 5′-adenosine monophosphate (5′-AMP), which is formed from 3′,5′-adenosine monophosphate (cAMP). Human recombinant enzyme, expressed in Sf9 cells, and the HTRF (homogeneous time-resolved fluorescence) detection method were used in the assay.
The test compound or water (control) was mixed with the human recombinant PDE4B1 enzyme (4.8 U) in a buffer consisting of 44.4 mM tris-HCl, 5.28 mM MgCl2, 2.64 mM DTT and 0.044% Tween 20 (pH 7.8). After adding the cAMP enzyme substrate (final concentration 40 nM) the mixture was incubated for 30 minutes at room temperature. Then a fluorescence acceptor (Dye2 marked with cAMP), a fluorescence donor (anti-cAMP antibody marked with a europium cryptate) and the non-specific phosphodiesterase inhibitor IBMX (3-isobutyl-1-methylxanthine; final concentration 1 mM) were added. After 60 minutes the fluorescence transfer, which correlates with the amount of remaining cAMP, was measured with a microplate reader (Rubystar, BMG) at λex=337 nm, λem=620 nm and λem=665 nm. The enzyme activity was calculated from the quotient formed from the measured signal at 665 nm and that at 620 nm. The result was expressed as the percentage inhibition of enzyme activity of the control (without PDE4 inhibitor) (literature: N. Saldou et al., Comparison of recombinant human PDE4 isoforms: interaction with substrate and inhibitors, Cell. Signal. Vol. 10, No. 6, 427-440, 1998). The enzyme was omitted for measurement of the basal control.

T1 sequence (Q07343 whole entry): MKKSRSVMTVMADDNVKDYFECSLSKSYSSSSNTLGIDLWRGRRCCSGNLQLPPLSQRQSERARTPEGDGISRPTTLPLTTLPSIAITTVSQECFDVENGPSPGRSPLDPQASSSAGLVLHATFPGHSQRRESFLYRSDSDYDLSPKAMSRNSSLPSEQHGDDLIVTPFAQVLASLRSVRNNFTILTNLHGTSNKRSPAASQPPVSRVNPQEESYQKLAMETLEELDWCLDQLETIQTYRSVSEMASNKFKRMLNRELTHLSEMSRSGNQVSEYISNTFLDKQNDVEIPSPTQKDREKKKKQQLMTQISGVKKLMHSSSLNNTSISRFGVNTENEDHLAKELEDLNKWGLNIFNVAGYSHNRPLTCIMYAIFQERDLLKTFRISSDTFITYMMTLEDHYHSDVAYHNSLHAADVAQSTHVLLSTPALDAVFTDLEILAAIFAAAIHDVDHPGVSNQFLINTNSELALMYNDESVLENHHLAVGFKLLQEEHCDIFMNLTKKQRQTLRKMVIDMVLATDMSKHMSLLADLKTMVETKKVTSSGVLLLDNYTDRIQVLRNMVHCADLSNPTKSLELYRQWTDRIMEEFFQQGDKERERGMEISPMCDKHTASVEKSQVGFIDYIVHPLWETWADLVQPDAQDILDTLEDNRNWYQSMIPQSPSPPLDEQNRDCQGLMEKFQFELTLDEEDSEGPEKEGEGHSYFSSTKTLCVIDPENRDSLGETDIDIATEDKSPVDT

| SMILES | inhibition at 1 µM [%] | IC50 [nM] |
| --- | --- | --- |
| COc1ccc(-c2nc3c(c(Oc4ccc(CC(=O)O)cc4)n2)CCC3)cc1F [Compound 1, 2-(4-(2-(3-Fluoro-4-methoxyphenyl)-6,7-dihydro-5H-cyclopenta[d]pyrimidin-4-yloxy)phenyl)acetic acid] | 74 |  |
| COc1ccc(-c2nc3c(c(Oc4ccc(CC(=O)O)cc4)n2)CCC3)cc1Cl [Compound 2, 2-(4-(2-(3-Chloro-4-methoxyphenyl)-6,7-dihydro-5H-cyclopenta[d]pyrimidin-4-yloxy)phenyl)acetic acid] | 75 |  |
| O=C(O)Cc1ccc(Oc2nc(-c3ccc(F)c(F)c3)nc3c2CCC3)cc1 [Compound 3, 2-(4-(2-(3,4-Difluorophenyl)-6,7-dihydro-5H-cyclopenta[d]pyrimidin-4-yloxy)phenyl)acetic acid] | 30 |  |
| COc1ccc(-c2nc3c(c(Oc4ccc(C(=O)O)cc4)n2)CCC3)cc1F [Compound 4, 4-(2-(3-Fluoro-4-methoxyphenyl)-6,7-dihydro-5H-cyclopenta[d]pyrimidin-4-yloxy)benzoic acid] | 62 |  |
| COc1ccc(-c2nc3c(c(Oc4ccc(C(=O)O)cc4)n2)CCC3)cc1Cl [Compound 5, 4-(2-(3-Chloro-4-methoxyphenyl)-6,7-dihydro-5H-cyclopenta[d]pyrimidin-4-yloxy)benzoic acid] | 71 |  |
| O=C(O)c1ccc(Oc2nc(-c3ccc(F)c(F)c3)nc3c2CCC3)cc1 [Compound 6, 4-(2-(3,4-Difluorophenyl)-6,7-dihydro-5H-cyclopenta[d]pyrimidin-4-yloxy)benzoic acid] | 55 |  |
| O=C(O)Cc1ccc(Oc2nc(-c3ccc(Cl)s3)nc3c2CCC3)cc1 [Compound 7, 2-(4-(2-(5-Chlorothiophen-2-yl)-6,7-dihydro-5H-cyclopenta[d]pyrimidin-4-yloxy)phenyl)acetic acid] | 77 | < 100 |
| O=C(O)c1ccc(Oc2nc(-c3ccc(Cl)s3)nc3c2CCC3)cc1 [Compound 8, 4-(2-(5-Chlorothiophen-2-yl)-6,7-dihydro-5H-cyclopenta[d]pyrimidin-4-yloxy)benzoic acid] | 84 |  |
| O=C(O)Cc1ccc(Cc2nc(-c3ccc(Cl)s3)nc3c2CCC3)cc1 [Compound 9, 2-(4-((2-(5-Chlorothiophen-2-yl)-6,7-dihydro-5H-cyclopenta[d]pyrimidin-4-yl)methyl)phenyl)acetic acid] | 75 |  |
| O=C(O)Cc1ccc(Oc2nc(-c3ccc(Cl)s3)nc3c2CCCC3)cc1 [Compound 10, 2-(4-(2-(5-Chlorothiophen-2-yl)-5,6,7,8-tetrahydroquinazolin-4-yloxy)phenyl)acetic acid] | 49 |  |
| O=C(O)c1ccc(Oc2nc(-c3ccc(Cl)s3)nc3c2CCCC3)cc1 [Compound 11, 4-(2-(5-Chlorothiophen-2-yl)-5,6,7,8-tetrahydroquinazolin-4-yloxy)benzoic acid] | 44 |  |
| O=C(O)Cc1ccc(Oc2nc(-c3ccc(Cl)s3)nc3c2CC(F)(F)CC3)cc1 [Compound 12, 2-(4-(2-(5-Chlorothiophen-2-yl)-6,6-difluoro-5,6,7,8-tetrahydroquinazolin-4-yloxy)phenyl)acetic acid] | 23 |  |
| O=C(O)Cc1ccc(Oc2nc(-c3ccc(O)c(Cl)c3)nc3c2CCC3)cc1 [Compound 13, 2-(4-(2-(3-Chloro-4-hydroxyphenyl)-6,7-dihydro-5H-cyclopenta[d]pyrimidin-4-yloxy)phenyl)acetic acid] | 72 |  |
| O=C(O)Cc1ccc(Oc2nc(-c3ccc(F)s3)nc3c2CS(=O)(=O)C3)cc1 [Compound 15, 2-[4-[[2-(5-Fluoro-thiophen-2-yl)-6,6-dioxo-5,7-dihydro-thieno[3,4-d]pyrimidin-4-yl]oxy]-phenyl]-acetic acid] | 86 | < 100 |
| COc1ccc(-c2nc3c(c(Oc4ccc(CC(=O)O)cc4)n2)CS(=O)(=O)C3)cc1F [Compound 16, 2-[4-[[2-(3-Fluoro-4-methoxy-phenyl)-6,6-dioxo-5,7-dihydro-thieno[3,4-d]pyrimidin-4-yl]oxy]-phenyl]-acetic acid] | 89 | < 100 |
| COc1ccc(-c2nc3c(c(Oc4ccc(CC(=O)O)cc4)n2)CS(=O)(=O)C3)cc1Cl [Compound 17, 2-[4-[[2-(3-Chloro-4-methoxy-phenyl)-6,6-dioxo-5,7-dihydro-thieno[3,4-d]pyrimidin-4-yl]oxy]-phenyl]-acetic acid] | 95 | < 100 |

| SMILES | inhibition at 1 µM [%] | IC50 [nM] |
| --- | --- | --- |
| COc1ccc(-c2nc3c(c(Oc4ccc(CC(=O)O)cc4)n2)CS(=O)(=O)C3)cc1 [Compound 18, 2-[4-[[2-(4-Methoxyphenyl)-6,6-dioxo-5,7-dihydro-thieno[3,4-d]pyrimidin-4-yl]oxy]-phenyl]-acetic acid] | 112 | < 100 |
| O=C(O)Cc1ccc(Oc2nc(-c3ccc(Cl)s3)nc3c2CSC3)cc1 [Compound 19, 2-(4-(2-(5-Chlorothiophen-2-yl)-5,7-dihydrothieno[3,4-d]pyrimidin-4-yloxy)phenyl)acetic acid] | 98 | < 100 |
| O=C(O)Cc1ccc(Oc2nc(-c3ccc(Cl)s3)nc3c2C[S+]([O-])C3)cc1 (stereo not shown) [Compound 20, 2-[4-[[2-(5-Chloro-thiophen-2-yl)-6-oxo-5,7-dihydro-thieno[3,4-d]pyrimidin-4-yl]oxy]-phenyl]-acetic acid] | 103 | < 100 |
| O=C(O)Cc1ccc(Oc2nc(-c3ccc(Cl)s3)nc3c2CS(=O)(=O)C3)cc1 [Compound 21, 2-[4-[[2-(5-Chloro-thiophen-2-yl)-6,6-dioxo-5,7-dihydro-thieno[3,4-d]pyrimidin-4-yl]oxy]-phenyl]-acetic acid] | 91 | < 100 |
| O=C(O)Cc1ccc(Oc2nc(-c3ccc(Cl)s3)nc3c2CSCC3)cc1 [Compound 22, 2-(4-(2-(5-Chlorothiophen-2-yl)-7,8-dihydro-5H-thiopyrano[4,3-d]pyrimidin-4-yloxy)phenyl)acetic acid] | 50 |  |
| O=C(O)Cc1ccc(Oc2nc(-c3ccc(Cl)s3)nc3c2C[S+]([O-])CC3)cc1 (stereo not shown) [Compound 23, 2-[4-[[2-(5-Chloro-thiophen-2-yl)-6-oxo-7,8-dihydro-5H-thiopyrano[4,3-d]pyrimidin-4-yl]oxy]-phenyl]-acetic acid] | 18 |  |
| O=C(O)Cc1ccc(Oc2nc(-c3ccc(Cl)s3)nc3c2CS(=O)(=O)CC3)cc1 [Compound 24, 2-[4-[[2-(5-Chloro-thiophen-2-yl)-6,6-dioxo-7,8-dihydro-5H-thiopyrano[4,3-d]pyrimidin-4-yl]oxy]-phenyl]-acetic acid] | 33 |  |
| O=C(O)Cc1ccc(Oc2nc(-c3cncs3)nc3c2CCC3)cc1 [Compound 45, 2-(4-(2-(Thiazol-5-yl)-6,7-dihydro-5H-cyclopenta[d]pyrimidin-4-yloxy)phenyl)acetic acid] | 55 |  |
| O=C(O)Cc1ccc(Oc2nc(-c3cnc(Cl)s3)nc3c2CCC3)cc1 [Compound 46, 2-(4-(2-(2-Chlorothiazol-5-yl)-6,7-dihydro-5H-cyclopenta[d]pyrimidin-4-yloxy)phenyl)acetic acid] | 76 |  |
| NC(=O)c1ccc(-c2nc3c(c(Oc4ccc(CC(=O)O)cc4)n2)CCC3)s1 [Compound 47, 2-(4-(2-(5-Carbamoylthiophen-2-yl)-6,7-dihydro-5H-cyclopenta[d]pyrimidin-4-yloxy)phenyl)acetic acid] | 79 |  |
| N#Cc1ccc(-c2nc3c(c(Oc4ccc(CC(=O)O)cc4)n2)CCC3)s1 [Compound 48, 2-(4-(2-(5-Cyanothiophen-2-yl)-6,7-dihydro-5H-cyclopenta[d]pyrimidin-4-yloxy)phenyl)acetic acid] | 78 |  |
| O=C(O)Cc1ccc(Oc2nc(-c3ccc(Br)s3)nc3c2CCC3)cc1 [Compound 49, 2-(4-(2-(5-Bromothiophen-2-yl)-6,7-dihydro-5H-cyclopenta[d]pyrimidin-4-yloxy)phenyl)acetic acid] | 59 |  |
| Cc1sc(-c2nc3c(c(Oc4ccc(CC(=O)O)cc4)n2)CCC3)cc1Br [Compound 50, 2-(4-(2-(4-Bromo-5-methylthiophen-2-yl)-6,7-dihydro-5H-cyclopenta[d]pyrimidin-4-yloxy)phenyl)acetic acid] | 47 |  |
| CSc1ccc(-c2nc3c(c(Oc4ccc(CC(=O)O)cc4)n2)CCC3)s1 [Compound 51, 2-(4-(2-(5-(Methylthio)thiophen-2-yl)-6,7-dihydro-5H-cyclopenta[d]pyrimidin-4-yloxy)phenyl)acetic acid] | 84 |  |
| CS(=O)(=O)c1ccc(-c2nc3c(c(Oc4ccc(CC(=O)O)cc4)n2)CCC3)s1 [Compound 52, 2-(4-(2-(5-(Methylsulfonyl)thiophen-2-yl)-6,7-dihydro-5H-cyclopenta[d]pyrimidin-4-yloxy)phenyl)acetic acid] | 53 |  |
| O=C(O)Cc1ccc(Oc2nc(-c3ccc(Br)cc3)nc3c2CCC3)cc1 [Compound 53, 2-(4-((2-(4-Bromophenyl)-6,7-dihydro-5H-cyclopenta[d]pyrimidin-4-yl)oxy)phenyl)acetic acid] | 51 |  |

Reference: patent publication US9670189B2, “Substituted condensed pyrimidine compounds” (GRÜNENTHAL GMBH, priority 2013, dated 2017)
